Measured values as given in patent US20100285145A1, “GPR 119 MODULATORS” (PFIZER INC, priority 2009, published 2010).
Where “and” joins values, the source holds several entries; their conditions need not be identical. Equal values may be shown once.

Assays:
human GPR119 [1] = biological target: T1, human GPR119 (Homo sapiens, UniProt Q8TDV5); assay: β-Lactamase reporter functional assay (hGPR119 HEK293-CRE beta-lactamase cells); assay type: cell-based; design: host or cells: HEK293-CRE beta-lactamase; Emax: dose or concentration left out as unconfirmed
T1 sequence (Q8TDV5 1-335): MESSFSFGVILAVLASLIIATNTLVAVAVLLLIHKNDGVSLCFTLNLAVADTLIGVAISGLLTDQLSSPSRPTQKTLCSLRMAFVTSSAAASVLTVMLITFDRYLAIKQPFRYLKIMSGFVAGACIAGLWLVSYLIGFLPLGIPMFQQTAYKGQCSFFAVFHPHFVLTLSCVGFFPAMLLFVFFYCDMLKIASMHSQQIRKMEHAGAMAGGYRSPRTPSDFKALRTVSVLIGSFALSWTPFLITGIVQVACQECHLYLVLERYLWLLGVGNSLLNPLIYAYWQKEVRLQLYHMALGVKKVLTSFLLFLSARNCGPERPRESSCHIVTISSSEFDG
Description: The assay for GPR119 agonists utilizes a cell-based (hGPR119 HEK293-CRE beta-lactamase) reporter construct where agonist activation of human GPR119 is coupled to beta-lactamase production via a cyclic AMP response element (CRE). GPR119 activity is then measured utilizing a FRET-enabled beta-lactamase substrate, CCF4-AM (Live Blazer FRET-B/G Loading kit, Invitrogen cat #K1027). Specifically, hGPR119-HEK-CRE-beta-lactamase cells (Invitrogen 2.5×10^7/mL) were removed from liquid nitrogen storage, and diluted in plating medium (Dulbecco's modified Eagle medium high glucose (DMEM; Gibco Cat # 11995-065), 10% heat inactivated fetal bovine serum (HIFBS; Sigma Cat # F4135), 1×MEM Nonessential amino acids (Gibco Cat # 15630-080), 25 mM HEPES pH 7.0 (Gibco Cat # 15630-080), 200 nM potassium clavulanate (Sigma Cat # P3494). The cell concentration was adjusted using cell plating medium and 50 microL of this cell suspension ([…]) was added into each well of a black, clear bottom, poly-d-lysine coated 384-well plate (Greiner Bio-One cat# 781946) and incubated at 37 degrees Celsius in a humidified environment containing 5% carbon dioxide. After 4 hours the plating medium was removed and replaced with 40 microL of assay medium (Assay medium is plating medium without potassium clavulanate and HIFBS). Varying concentrations of each compound to be tested was then added in a volume of 10 microL (final DMSO ≦0.5%) and the cells were incubated for 16 hours at 37 degrees Celsius in a humidified environment containing 5% carbon dioxide. Plates were removed from the incubator and allowed to equilibrate to room temperature for approximately 15 minutes. 10 microL of 6×CCF4/AM working dye solution (prepared according to instructions in the Live Blazer FRET-B/G Loading kit, Invitrogen cat #K1027) was added per well and incubated at room temperature for 2 hours in the dark. Fluorescence was measured on an EnVision fluorimetric plate reader, excitation 405 nm, emission 460 nm/535 nm. EC50 determinations were made from agonist-response curves analyzed with a curve fitting program using a 4-parameter logistic dose-response equation.

human GPR119 [2] = biological target: T1, human GPR119; assay: GPR119 radioligand binding assay ([3H]-Compound A or B, membranes of HEK 293FT cells expressing hGPR119); design: host or cells: HEK293-CRE beta-lactamase; settings: calculated from IC50 with Cheng-Prusoff; each line a separate determination
Description: HEK 293FT cells (Invitrogen, Carlsbad, Calif.) were grown in a shake flask in 293Freestyle medium (Invitrogen) supplemented with 50 microg/mL neomycin and 10 mM HEPES (37C, 8% carbon dioxide, shaking). The cells were centrifuged gently (approximately 500×g, 10 minutes) and the pellet resuspended in a mixture of Dulbecco's PBS (minus Mg++/−Ca++) supplemented with 18% fetal bovine serum (Sigma Aldrich) and P1 virus such that the multiplicity of infection (MOI) was 10 and the final cell density was 1.3×10^6/mL (total volume 2.5 liters). The cells were transferred to a 5 liter Wave Bioreactor Wavebag (Wave Technologies, Mass.) and incubated for 4 hours at 27 degrees Celsius (17 rocks/min, 7 degrees platform angle); at the end of the incubation period, an equal volume (2.5 liters) of 293Freestyle medium supplemented with 30 mM sodium butyrate (Sigma Aldrich) was added (final concentration=15 mM), and the cells were grown for 20 hours (37 degrees Celsius, 8% CO2 [0.2 liters/min}, 25 rocks/minute, 7 degrees platform angle). Cells were harvested via centrifugation (3,000×g, 10 minutes), washed once on DPBS (minus Ca++/Mg++), resuspended in 0.25M sucrose, 25 mM HEPES, 0.5 mM EDTA, pH 7.4 and frozen at −80 degrees Celsius.
The frozen cells were thawed on ice and centrifuged at 700×g (1400 rpm) for 10 minutes at 4 degrees Celsius. The cell pellet was resuspended in 20 mL phosphate-buffered saline, and centrifuged at 1400 rpm for 10 minutes. The cell pellet was then resuspended in homogenization buffer (10 mM HEPES (Gibco #15630), pH 7.5, 1 mM EDTA (BioSolutions, #BIO260-15), 1 mM EGTA (Sigma, #E-4378), 0.01 mg/mL benzamidine (Sigma #B 6506), 0.01 mg/mL bacitracin (Sigma #B 0125), 0.005 mg/mL leupeptin (Sigma #L 8511), 0.005 mg/mL aprotinin (Sigma #A 1153)) and incubated on ice for 10 minutes. Cells were then lysed with 15 gentle strokes of a tight-fitting glass Dounce homogenizer. The homogenate was centrifuged at 1000×g (2200 rpm) for 10 minutes at 4 degrees Celsius. The supernatant was transferred into fresh centrifuge tubes on ice. The cell pellet was resuspended in homogenization buffer, and centrifuged again at 1000×g (2200 rpm) for 10 minutes at 4 degrees Celsius after which the supernatant was removed and the pellet resuspended in homogenization buffer. This process was repeated a third time, after which the supernatants were combined, Benzonase (Novagen # 71206) and MgCl2 (Fluka #63020) were added to final concentrations of 1 U/mL and 6 mM, respectively, and incubated on ice for one hour. The solution was then centrifuged at 25,000×g (15000 rpm) for 20 minutes at 4 degrees Celsius, the supernatant was discarded, and the pellet was resuspended in fresh homogenization buffer (minus Benzonase and MgCl2). After repeating the 25,000×g centrifugation step, the final membrane pellet was resuspended in homogenization buffer and frozen at −80 degrees Celsius. The protein concentration was determined using the Pierce BCA protein assay kit (Pierce reagents A #23223 and B #23224).
Test compounds were serially diluted in 100% DMSO (J. T. Baker #922401). 2 microL of each dilution was added to appropriate wells of a 96-well plate (each concentration in triplicate). Unlabeled Compound A (or Compound B), at a final concentration of 10 microM, was used to determine non-specific binding. [^3H]-Compound A (or [^3H]-Compound B) was diluted in binding buffer (50 mM Tris-HCl, pH 7.5, (Sigma #T7443), 10 mM MgCl2 (Fluka 63020), 1 mM EDTA (BioSolutions #BIO260-15), 0.15% bovine serum albumin (Sigma #A7511), 0.01 mg/mL benzamidine (Sigma #B 6506), 0.01 mg/mL bacitracin (Sigma #B 0125), 0.005 mg/mL leupeptin (Sigma #L 8511), 0.005 mg/mL aprotinin (Sigma #A 1153)) to a concentration of 60 nM, and 100 microL added to all wells of 96-well plate (Nalge Nunc # 267245). […]

human GPR119 [3] = biological target: T1, human GPR119; assay: cAMP HTRF functional assay (hGPR119 HEK-CRE beta-lactamase cells); assay type: cell-based; design: host or cells: HEK293-CRE beta-lactamase
Description: GPR119 agonist activity was also determined with a cell-based assay utilizing an HTRF (Homogeneous Time-Resolved Fluorescence) cAMP detection kit (cAMP dynamic 2 Assay Kit; Cis Bio cat #62AM4PEC) that measures cAMP levels in the cell. The method is a competitive immunoassay between native cAMP produced by the cells and the cAMP labeled with the dye d2. The tracer binding is visualized by a Mab anti-cAMP labeled with Cryptate. The specific signal (i.e. energy transfer) is inversely proportional to the concentration of cAMP in either standard or sample.
Specifically, hGPR119 HEK-CRE beta-lactamase cells (Invitrogen 2.5×10^7/mL; the same cell line used in the beta-lactamase assay described above) are removed from cryopreservation and diluted in growth medium (Dulbecco's modified Eagle medium high glucose (DMEM; Gibco Cat # 11995-065), 1% charcoal dextran treated fetal bovine serum (CD serum; HyClone Cat # SH30068.03), 1×MEM Nonessential amino acids (Gibco Cat # 15630-080) and 25 mM HEPES pH 7.0 (Gibco Cat # 15630-080)). The cell concentration was adjusted to 1.5×10^5 cells/mL and 30 mLs of this suspension was added to a T-175 flask and incubated at 37 degrees Celsius in a humidified environment in 5% carbon dioxide. After 16 hours (overnight), the cells were removed from the T-175 flask (by rapping the side of the flask), centrifuged at 800×g and then re-suspended in assay medium (1×HBSS+CaCl2+MgCl2 (Gibco Cat # 14025-092) and 25 mM HEPES pH 7.0 (Gibco Cat # 15630-080)). The cell concentration was adjusted to 6.25×10^5 cells/mL with assay medium and 8 μl of this cell suspension (5000 cells) was added to each well of a white Greiner 384-well, low-volume assay plate (VWR cat #82051-458).
Varying concentrations of each compound to be tested were diluted in assay buffer containing 3-isobutyl-1-methylxanthin (IBMX; Sigma cat #15879) and added to the assay plate wells in a volume of 2 microL (final IBMX concentration was 400 microM and final DMSO concentration was 0.58%). Following 30 minutes incubation at room temperature, 5 microL of labeled d2 cAMP and 5 microL of anti-cAMP antibody (both diluted 1:20 in cell lysis buffer; as described in the manufacturers assay protocol) were added to each well of the assay plate. The plates were then incubated at room temperature and after 60 minutes, changes in the HTRF signal were read with an Envision 2104 multilabel plate reader using excitation of 330 nm and emissions of 615 and 665 nm. Raw data were converted to nM cAMP by interpolation from a cAMP standard curve (as described in the manufacturer's assay protocol) and EC50 determinations were made from an agonist-response curves analyzed with a curve fitting program using a 4-parameter logistic dose response equation.

SMILES	EC50 (human GPR119 [1]; hGPR119 HEK293-CRE beta-lactamase cells, 16 h incubation, each line a separate determination, read-out: Human B-lactamase Functional EC50) [µM]	Emax (human GPR119 [1]; percent of maximal activity relative to standard GPR119 agonist at 10 micromolar, read-out: Intrinsic Activity (Human B-lactamase)) [%]	Ki (human GPR119 [2]) [µM]	EC50 (human GPR119 [3]; HTRF cAMP, 30 min, 400 microM IBMX, each line a separate determination)	Intrinsic Activity (Human cAMP) (human GPR119 [3]; percent of maximal activity relative to standard GPR119 agonist at 10 micromolar) [%]	Emax (human GPR119 [3]; percent of maximal activity relative to standard GPR119 agonist at 10 micromolar, read-out: Intrinsic Activity (Human cAMP)) [%]
COc1c(OC2CCN(C(=O)OC(C)C)CC2)ncnc1N1CCc2cc(S(C)(=O)=O)ccc21 [Example 7, Isopropyl 4-({5-methoxy-6-[5-(methylsulfonyl)-2,3-dihydro-1H-indol-1-yl]pyrimidin-4-yl}oxy)piperidine-1-carboxylate]	0.0966	101	0.285			
Cc1c(O[C@@H]2CCN(C(=O)OC(C)(C)C)C[C@@H]2F)ncnc1N1CCc2nnccc21 [Example 30, tert-Butyl (3S,4R)-4-{[6-(6,7-dihydro-5H-pyrrolo[3,2-c]pyridazin-5-yl)-5-methylpyrimidin-4-yl]oxy}-3-fluoropiperidine-1-carboxylate]			> 8.15	0.549 µM and 0.52 µM	28	28
